Biological target: T1, Prostaglandin D2 receptor 2 (Homo sapiens, UniProt Q9Y5Y4)
T1 sequence (Q9Y5Y4 whole entry): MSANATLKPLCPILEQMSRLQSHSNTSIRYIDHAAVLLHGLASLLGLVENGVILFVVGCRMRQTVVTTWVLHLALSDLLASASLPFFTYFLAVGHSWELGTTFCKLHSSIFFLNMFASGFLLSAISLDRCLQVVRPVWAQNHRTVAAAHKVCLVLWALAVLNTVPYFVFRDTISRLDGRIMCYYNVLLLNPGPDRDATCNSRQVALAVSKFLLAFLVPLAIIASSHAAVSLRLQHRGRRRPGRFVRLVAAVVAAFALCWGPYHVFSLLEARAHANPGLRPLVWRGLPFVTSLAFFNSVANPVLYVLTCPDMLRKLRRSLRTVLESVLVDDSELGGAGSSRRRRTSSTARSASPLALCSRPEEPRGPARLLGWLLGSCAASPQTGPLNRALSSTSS
Experiment: Biological Activity Assay: Experimental Method:PathHunter CHO-K1 CRTH2 β-arrestin cells (DiscoverX, catalogue number 93-0291C2) grew under standard conditions, and were inoculated into a white-wall 384-well microplate at a density of 5,000 cells/well. 20 μL of Cell Plating Reagent 1 was used in each well. Before the test, the cells were incubated overnight at 37° C./5% CO2. A test compound was serially diluted in DMSO with a dilution factor of 3-fold to give 8 concentrations of the test compound. Shortly before the test, the serially diluted test compound was further diluted with the test buffer to 5 times of the test concentration. 5 μL of the further diluted test compound was added to the cells, and the cells were incubated for 30 min at 37° C. The concentration of the solvent was 1%. 5 μL of 6×EC80 agonist (PGD2) buffer was added to the cells, and the cells were incubated for 90 min at 37° C. Measured signals were generated by one-time addition of 15 μL (50% v/v) of PathHunter detection mixture reagent and subsequent one-hour incubation. The microplate was read through the chemiluminescent signals of PerkinElmer Envision™ reader. Biological activity of the test compound was analyzed by CBIS data analysis suite (ChemInnovation, CA), and was denoted as IC50 value.

Cc1c(Cc2ccc3c(c2)C(F)(F)CCS3(=O)=O)c2cc(F)ccc2n1Cc1nn[nH]n1
IC50: > 1000 nM

Cc1c(Cc2ccc3c(c2)C(F)(F)CN(C)S3(=O)=O)c2cc(F)ccc2n1CC(=O)O
IC50: < 100 nM

Cc1c(Cc2ccc3c(c2)CCS3(=O)=O)c2cc(NC(=O)C3CC3)ccc2n1CC(=O)O
IC50: > 1000 nM

Cc1c(C2=CS(=O)(=O)c3cc(Cl)ccc32)c2cc(F)ccc2n1CC(=O)O
IC50: < 100 nM

CC1=Nc2cc(Cc3c(C)n(CC(=O)O)c4ccc(F)cc34)ccc2S(=O)(=O)N1
IC50: < 100 nM

Cc1c(Cc2ccc3c(c2)C(C)(C)CS3(=O)=O)c2cc(F)ccc2n1CC(=O)O
IC50: < 100 nM

Cc1c(C2=CS(=O)(=O)c3ccccc32)c2cc(F)ccc2n1CC(=O)O
IC50: < 100 nM

O=C(O)Cn1c(-c2ccccc2)c(Cc2ccc3c(c2)CCS3(=O)=O)c2ccccc21
IC50: > 1000 nM

Cc1c(C2=CS(=O)(=O)c3cc(-c4cc(F)cc(Cl)c4)ccc32)c2cc(F)ccc2n1CC(=O)O
IC50: < 100 nM

Cc1c(Cc2ccc3c(c2)N(C)CN(C)S3(=O)=O)c2cc(F)ccc2n1CC(=O)O
IC50: < 100 nM

Cc1c(Cc2ccc3c(c2)N=CN(C)S3(=O)=O)c2cc(F)ccc2n1CC(=O)O
IC50: < 100 nM

Cc1c(Cc2ccc3c(c2)C(F)(F)CCS3(=O)=O)c2cnccc2n1CC(=O)O
IC50: > 1000 nM

Cc1c(Cc2ccc3c(c2)CCS3(=O)=O)c2ccc(C(F)(F)F)cc2n1CC(=O)O
IC50: > 1000 nM

Cc1c(Cc2ccc3c(c2)C(F)(F)CCS3(=O)=O)c2cccnc2n1CC(=O)O
IC50: > 1000 nM

Cc1c(Cc2cc3c(cc2C(F)(F)F)S(=O)(=O)N(C)CN3C)c2cc(F)ccc2n1CC(=O)O
IC50: < 100 nM

Cc1c(C2=CCS(=O)(=O)c3ccccc32)c2cc(F)ccc2n1CC(=O)O
IC50: < 100 nM

Cc1c(C2=CS(=O)(=O)c3ccc(F)cc32)c2cc(F)ccc2n1CC(=O)O
IC50: > 1000 nM

Cc1c(Cc2ccc3c(c2)C(F)(F)CCS3(=O)=O)c2cc(F)ccc2n1CC(=O)O
IC50: < 100 nM

Cc1c(C2=CS(=O)(=O)c3cc(C(F)(F)F)ccc32)c2cc(F)ccc2n1CC(=O)O
IC50: < 100 nM

Cc1c(Cc2ccc3c(c2)CNS3(=O)=O)c2cc(F)ccc2n1CC(=O)O
IC50: < 100 nM

Cc1c(C2=CS(=O)(=O)c3ccccc32)c2ccc(Cl)cc2n1CC(=O)O
IC50: < 100 nM

Source: ChEMBL document CHEMBL5728026, “Indole derivative used as CRTH2 inhibitor” (2020)
